Data on five compounds can be found in patent publication US20260091103A1, “NOVEL COMPOSITIONS COMPRISING TERPENOID AND MACROMOLECULE, AND USES THEREOF” (Powin Biomedical Co., Ltd., priority 2022, published 2026).

In one series the test system is dendritic cells (CD11c+). Nature of the series: Antigen-presenting cell recruitment in injected quadriceps muscle: dendritic cells (flow cytometry). It is filed as in vivo, BALB/c mice. The settings on record: 50 μL i.m. into right quadriceps, versus vehicle-injected left quadriceps. How it is done:
(§1) 15 BALB/c mice were randomly assigned into 5 groups (three mice per group), which were Paraffin oil@HACH group, Squalane@HACH group, Squalene@HACH group, Ocimene@HACH group, and Farnesene@HACH group.
(§2) 50 μL of the composition comprising Paraffin oil@HACH particles, composition comprising Squalane@HACH particles, composition comprising Squalene@HACH particles, composition comprising Ocimene@HACH particles, or composition comprising Farnesene@HACH particles (the test samples in this experiment) was injected intramuscularly into the right quadriceps of mice in the Paraffin oil@HACH group, Squalane@HACH group, Squalene@HACH group, Ocimene@HACH group, and Farnesene@HACH group, respectively; and 50 μL of sodium citrate buffer (pH=6.5) (the vehicle control in this experiment) was injected intramuscularly into the left quadriceps of mice in these groups to monitor the effect induced by the injection on each mouse.
(§3) The mice in each group were sacrificed at 5th day after injection.
(§4) The left quadriceps muscles and the right quadriceps muscles of each mouse were harvested respectively. The tendons were removed, and muscles were digested with 3 mL of phosphate buffered saline (PBS) containing 0.05% (w/v) type II collagenase, 10 μg/mL of DNase I, and 0.5% BSA at 37° C. for 40 min. The muscle digestion was quenched by the addition of excess medium; and then the cell suspension was collected by centrifugation at 1200 rpm for 5 min, resuspended in PBS, and filtered through a 70-μm nylon mesh (BD-Biosciences).
The degree of dendritic cell (CD11c^+) recruitment in each mouse was assessed according to the following formula (VI): […]
(§5) The experimental procedure was roughly the same as that described in Experiment 1-4. The only differences were the compositions administered to the mice.
(§6) Cholesterol group: 50 μL of the N-methyl-2-pyrrolidone (NMP) solution comprising cholesterol (0.25 mg/mL) (the test sample in this group) was injected intramuscularly into the right quadriceps of mice; and 50 μL of N-methyl-2-pyrrolidone solution (the vehicle control in this group) was injected intramuscularly into the left quadriceps of mice to monitor the effect induced by the injection on each mouse.
(§7) Squalene group: 50 μL of the N-methyl-2-pyrrolidone (NMP) solution comprising squalene (50 μL/mL) (the test sample in this group) was injected intramuscularly into the right quadriceps of mice; and 50 μL of N-methyl-2-pyrrolidone solution (the vehicle control in this group) was injected intramuscularly into the left quadriceps of mice to monitor the effect induced by the injection on each mouse.
(Flow cytometry measures light scatter and fluorescence of single cells or particles in a stream.)

The next series has as its system macrophages (CD11b+). The series can be described thus: Antigen-presenting cell recruitment in injected quadriceps muscle: macrophages (flow cytometry). It is filed as in vivo, BALB/c mice. The settings on record: 50 μL i.m. into right quadriceps, versus vehicle-injected left quadriceps. The procedure: as §1, §2, §3, §4
The degree of macrophage cell (CD11b^+) recruitment in each mouse was assessed according to the following formula (VII): […]
as §5, §6, §7

A further series has as its system 4T1 cells. The series can be described thus: Anti-tumor activity in 4T1 breast cancer mouse model. Format: in vivo, BALB/c mice. Set-up: key to Survival Status on Day 53: Dead means that the mouse died because of the tumor; Dead * means that the mouse died from attack by other mice. The procedure:
On Day 0, after the injection process as described above was completed, 0.05 mL of the phosphate buffered saline (PBS) comprising 4T1 cells (2×10^6 cells/mL; 4T1 cell is abreast cancer cell line) was injected subcutaneously into the abdominal mammary fat pad of the mice in each group, and the tumor volume and survival status of mice were initially monitored on this day (Day 0). Tumor volume was calculated by ½*(4*3.14/3)*(length/2)*(width/2)*height*1000, and the observation of the tumor volume and survival status was stopped if the mouse was defined as either death or paralysis or the tumor volume of the mouse exceeding 1000 mm^3.

Another series relates to CD4+ T cell. The series can be described thus: T cell immunity: CD4+ T cells in splenocytes of immunized mice (flow cytometry). To be noted: splenocytes on day 28; i.m. on day 0 and day 14.
A further series relates to CD8+ T cell. Nature of the series: T cell immunity: CD8+ T cells in splenocytes of immunized mice (flow cytometry). The settings on record: splenocytes on day 28; i.m. on day 0 and day 14.
A short description of series [1]: Condition suitable for self-assembly of Squalene@HACH particles (appearance of 28 compositions). Format: physicochemical. To be noted: by together forming squalene@HACH particles. The procedure: In this experiment, the condition suitable for self-assembly of Squalene@HACH particles was assessed and shown in a Ternary diagram.
There were 28 groups in this experiment, that is, the first to the 28th group. The preparation procedure of the compositions in each group was roughly the same as the experimental procedure of Composition comprising Squalene@HACH particles described in Experiment 1-1-4. The only differences were the weight of squalene, the weight of HACH, and the weight of sodium citrate solution (aqueous buffer solution).
Squalene@HACH particles in the compositions were detected and analyzed by dynamic light scattering, particle size analyzer, or transmission electron microscope. Moreover, please note that if the self-assembly of the Squalene@HACH particles occur in the composition, the composition would be a milk-like mixture solution (milk-like suspension).

Where [2] appears, read: individual mouse, i.m. on Day −14 and Day 0, 4T1 cells s.c. on Day 0.

“Also recorded” adds a separate entry of the source.

Description for CD4+ T cell: (§8) 12 BALB/c mice were randomly assigned into 4 groups (three mice per group), which were PBS group, WT1 group, WT1+IFN-alpha-based adjuvant group, and WT1+Squalene@HACH group.
(§9) PBS group: 50 μL of the phosphate buffered saline was injected intramuscularly into both of the left and right quadriceps of mice on day 0 and day 14.
(§10) WT1 group: 50 μL of the sodium citrate solution comprising 25 μL of WT1 protein was injected intramuscularly into both of the left and right quadriceps of mice on day 0 and day 14. […]
(§11) The splenocytes were isolated by the following procedure: the spleen was gently pressed with the plunger seal of a 5-mL syringe on a 70-μm cell strainer into a 50-mL tube and washed through a cell strainer with RPMI 1640 containing 10% (v/v) FBS. […] The cell solution was counted and diluted to the desired cell concentrations.
(§12) The cell suspensions obtained from the spleen of mice in each group were respectively mixed with a medium containing titrated fluorescent conjugates of monoclonal antibodies CD8a-Alexa Fluor 647 (BD Pharmingen), and CD4-FITC (Thermo Fisher). […] Finally, the stained cells were washed with staining buffer and analyzed by BD Accuri™ C6 flow cytometer.
Description for CD8+ T cell: as §8, §9, §10, §11, §12

As for `CCCCCCCCCCCCCCCCCCN` [ODA, octadecan-1-amine], the “Dendritic cells (CD11c+) recruitment, in words” value (“Dendritic cells” for short) in the series with dendritic cells (CD11c+) is recorded as “lack the ability to recruit”. The “Macrophages (CD11b+) recruitment, in words” value (from here on “Macrophages”) in the series with macrophages (CD11b+) was “lack the ability to recruit”.
Regarding `CC(C)CCC[C@@H](C)[C@H]1CC[C@H]2[C@@H]3CC=C4C[C@@H](O)CC[C@]4(C)[C@H]3CC[C@]12C` [cholesterol], the “Dendritic cells” value in the series on dendritic cells (CD11c+) is recorded as “lack the ability to recruit”. Further, the “Macrophages” value in the series with macrophages (CD11b+) was “lack the ability to recruit”.
Consider `CC(C)=CCC/C(C)=C/CC/C(C)=C/CC/C=C(\C)CC/C=C(\C)CCC=C(C)C` [squalene], for which, in the series with dendritic cells (CD11c+), the “Dendritic cells” value is on record as “lack the ability to recruit”. Moreover, the “Macrophages” value in the series on macrophages (CD11b+) is “lack the ability to recruit”.
In the case of “WT1: WT1 protein, targeted antigen, given alone in sodium citrate solution”, the “Dendritic cells” value in the series with dendritic cells (CD11c+) is recorded as “lacks the ability to recruit”. Further, the “Macrophages” value in the series on macrophages (CD11b+) is given as “lacks the ability to recruit”. Further, in the series on 4T1 cells (setting [2]), the “Survival Status on Day 53” value is “Dead” and the “The day of the Tumor Growth” value is listed as “Day 18; also recorded: Day 21; also recorded: Day 25”. In the series on 4T1 cells (of 6 mice per group), the “Mice died on Day 53” value stood at 6 mice and the “Mice in which tumor developed” value stood at 6 mice. Besides, the “Tumor was initially developed between” value in the series on 4T1 cells (range over tumor-bearing mice of the group) fell in the range of 18 to 25 days. Moreover, the “CD4+ T cell” value in the series with CD4+ T cell was 34.1%. Besides, the “CD8+ T cell” value in the series on CD8+ T cell stood at 27.5%.
Take “hyaluronic acid-cholesterol conjugate [HACH]”: the “Weight units of squalene coated by 1 weight unit of HACH” value in series [1] was 80 weight units.
